Reference: patent US20220192955A1, “AZOXYSTROBIN EFFICACY IN SCALP HEALTH” (The Procter & Gamble Company, priority 2020, published 2022)
Marks after values point to notes of the source that are not given here.

Tests used:
[1] = tested on: Malassezia furfur (CBS 7982); assay: In vitro evaluation of antifungal potency (MIC); type: cell-based
Experimental: Malassezia furfur (CBS 7982) is grown for approximately 24 hours in a 250 ml vent cap polycarbonate Erlenmeyer flask containing approximately 100 ml of mDixon medium and 5 ml of a fully grown M. furfur culture prepared using the same conditions as described. The cells are diluted by mixing 2.5 ml of the 24 hour-old culture per 50 ml of mDixon medium. A Versette robot (ThermoFisher Scientific) is used to transfer 292.5 μl of the dilute cells into each well of a Beckman 267007 polypropylene round bottom deep well plate. All compounds are sourced from Sigma Aldrich (St. Louis, Mo.) and prepared as 10 mg/ml in DMSO. A semipermeable aeraseal membrane is applied to the plate which is then be covered with water-soaked cotton batting. The samples are be shaken at 31° C. on a Heidolph Titramax 100 shaker at 1500 rpm for approximately 72 hours. The plates are shaken at 1250 rpm on an Eppendorf MixMate shaker to disperse the cells before transferring 200 μl to a Corning 3596 polystyrene plate. The samples are shaken again at 950 rpm on a MixMate shaker before the absorbance at 600 nm is read using a Molecular Devices SpectraMax plate reader.

[2] = tested on: human scalp (dandruff); assay: In vivo scalp health study: adherent scalp flaking score (ASFS)
Experimental: Subjects are enrolled in a double-blind, randomized study for all test groups and have Baseline and Week 3 measurements of scalp health taken for flaking, itch and scalp health endpoints. Subjects take home a test product(s) and are instructed on use of test products throughout the study. Test products are solubilized in a hydroalcoholic leave-on formulation. Azoxystrobin raw material is sourced from AK Scientific Inc. (Union City, Calif.) as >97% pure. Azoxystrobin scalp treatment is prepared from a slurry of azoxystrobin in ethanol that is formulated to 0.1% (w/v) in a base chassis of 50% ethanol, 0.35% Ultrez 21 (rheology modifier), 0.05% neutrol TE and water (q.s.). Vehicle scalp treatment is prepared similarly without the addition of azoxystrobin raw material. Subjects apply either azoxystrobin or vehicle scalp treatments daily for 3 weeks. Grading of the scalp is performed by qualified expert graders for adherent scalp flaking scores (ASFS) as described in published methods. Detailed methods can be found in Journal of Dermatological Treatment 2014, 25, 232-236, incorporated by reference herein. Briefly, flaking severity of a subject is assessed by examination of the scalp which is illuminated by lighting that mimics daylight conditions. The scalp is divided into eight sections and each section is assessed for the presence of dandruff flakes that are adhering to the scalp skin using a 0 to 10 (increment of 2 units) scale. Loose flakes in the hair are not considered in the grading. The final, or total, ASFS is the sum of the grades for all eight scalp sections, which results in a scale ranging from 0 to 80 units. The change in flaking across time is reported as change from baseline at the 3-week time point.

[3] = tested on: IL-1RA: IL-1α; assay: Scalp tape strip inflammatory cytokines IL-1RA:IL-1α; type: in vivo, human
Experimental: Subjects are enrolled in a double-blind, randomized study for all test groups and have Baseline and Week 3 measurements of scalp health taken for flaking, itch and scalp health endpoints. Subjects take home a test product(s) and are instructed on use of test products throughout the study. Test products are solubilized in a hydroalcoholic leave-on formulation. Azoxystrobin raw material is sourced from AK Scientific Inc. (Union City, Calif.) as >97% pure. Azoxystrobin scalp treatment is prepared from a slurry of azoxystrobin in ethanol that is formulated to 0.1% (w/v) in a base chassis of 50% ethanol, 0.35% Ultrez 21 (rheology modifier), 0.05% neutrol TE and water (q.s.). […] Biomarkers of scalp health, including biomarkers of inflammation, itch, oxidative stress and barrier integrity are assessed by non-invasive tape strip sampling of the scalp surface to determine therapeutic resolution. All biomarkers are analyzed from D-Squame® scalp tape samples that are collected from the scalp of subjects before and after scalp treatment with either azoxystrobin or vehicle (Baseline, and Week 3 respectively). These are extracted and analyzed according to published methods (International Journal of Dermatology 2011, 50, 102-113, incorporated by reference herein). […] Human inflammatory cytokines are analyzed to evaluate skin irritation and inflammatory processes. […]

CO/C=C(/C(=O)OC)c1ccccc1Oc1cc(Oc2ccccc2C#N)ncn1 [Azoxystrobin]
MIC value, Malassezia furfur ([1]; M. furfur CBS 7982, mDixon medium, 31° C., approximately 72 hours, absorbance at 600 nm): 0.39-0.49 ppm | times more potent than pyraclostrobin (MIC) ([1]; Malassezia furfur MIC ratio): 4 times | times more potent than zinc pyrithione (MIC) ([1]; Malassezia furfur MIC ratio): 8 times | Flaking Results (ASFS Change from Baseline) ([2]; 0.1% (w/v) hydroalcoholic leave-on, daily, 3 weeks, dandruff subjects, scale 0 to 80): −13.88 | reduction in flaking ([2]; after 3 weeks of treatment): 45% | ASFS reduction more than the placebo ([2]; after 3 weeks of treatment, p=0.002): 4.7 units | IL-1RA: IL-1α ratio, % Change from Baseline ([3]; 0.1% leave-on daily, Week 3, scalp tape strips): −58.3* % | reduction of Interleukin-1 (IL-1RA: IL-1α) ([3]; compared to a placebo control): 58%
